The values that follow come from article PMC11877631, “Novel Nucleus-Oriented Quenched Activity-Based Probes Link Cathepsin Nuclear Localization with Mitosis” (ACS Sensors, 2025).

Series [1] has as its system HeLa cells. It is filed as cell-based, human. On the procedure:
(§1) NIH-3T3 cells (2.5 × 10^5 cells/well) or HeLa cells (2.0 × 10^5 cells/well) were seeded in a 12-well plate 1 day before treatment. Cells were incubated with KRS probes at 2.5 μM predissolved in 0.1% DMSO and 0.9% ethanol in a culture medium for indicated durations. After the incubation, cells were washed with PBS and lysed by the addition of sample buffer. Samples were analyzed by fluorescent SDS-PAGE as described above.

Series [2] concerns NIH-3T3 cells. Type of series: cell-based, mouse. On the procedure:
as §1

Series [3] deals with T1, intracellular cathepsin B in NIH-3T3 cells (Mus musculus, UniProt P10605).
T1 construct: KRS probes freely penetrated the cells and labeled endogenous cathepsins in a dose-dependent manner; endogenous in cells; host or cells: NIH-3T3
T1 sequence (P10605 80-333 limits assumed): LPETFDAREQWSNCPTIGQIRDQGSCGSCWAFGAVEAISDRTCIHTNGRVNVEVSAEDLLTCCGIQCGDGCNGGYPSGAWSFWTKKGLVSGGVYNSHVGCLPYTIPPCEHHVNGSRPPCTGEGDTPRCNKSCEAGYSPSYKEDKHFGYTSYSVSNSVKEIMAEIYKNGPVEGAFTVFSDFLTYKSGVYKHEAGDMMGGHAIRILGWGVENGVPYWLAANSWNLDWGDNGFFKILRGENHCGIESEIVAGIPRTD
It is filed as cell-based. Particulars: for Labeling of intracellular cathepsin B: live NIH-3T3, 6 h probe incubation, band intensity, in comparison to probes without the CPP. On the procedure: (§2) NIH-3T3 cells (2.5 × 10^5 cells/well) were seeded in a 12-well plate 1 day prior to treatment. Cells were pretreated with inhibitor GB111-NH2 or vehicle for 30 min followed by incubation with KRS probes at indicated concentrations predissolved in 0.1% DMSO and 0.9% ethanol in a culture medium. After 6 h of probe incubation cells were washed with PBS and lysed by addition of sample buffer as described above. Lysates were boiled for 5 min, centrifuged, and separated by 12.5% SDS-PAGE. Cathepsins labeled in cells were visualized by scanning the gel with a Typhoon laser scanner at Ex./Em. 535/570 nm.

The target of series [4] is T2, intracellular cathepsin L in NIH-3T3 cells (Mus musculus, UniProt P06797).
T2 construct: KRS probes freely penetrated the cells and labeled endogenous cathepsins in a dose-dependent manner; endogenous in cells; host or cells: NIH-3T3
T2 sequence (P06797 114-334): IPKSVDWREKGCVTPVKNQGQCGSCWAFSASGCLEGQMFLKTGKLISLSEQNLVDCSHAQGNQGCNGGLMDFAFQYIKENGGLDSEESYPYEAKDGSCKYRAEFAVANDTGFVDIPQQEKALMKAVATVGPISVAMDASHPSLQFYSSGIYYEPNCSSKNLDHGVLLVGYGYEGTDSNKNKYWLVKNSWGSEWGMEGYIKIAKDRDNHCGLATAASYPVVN
In words: Probe labeling in intact cells, fluorescent SDS-PAGE. It is filed as cell-based. The following applies: live NIH-3T3, 6 h probe incubation, band intensity; in comparison to probes without the CPP. On the procedure:
as §2

For series [5], the system named is NIH-3T3 cells. In words: Live cell confocal imaging. Type of series: cell-based, mouse. The following applies: NIH-3T3, 2.5 μM, 6 h; for Probe staining intensity in live cells: fluorescence microscopy; for Nuclear cathepsin labeling (confocal Z-stack, costaining with Hoechst): 63× objective. On the procedure: (§3) NIH-3T3 or HeLa cells were seeded in an 8-well coverslip chamber (Lab-Tek) at a density of 100,000 cells per well and grown at 37 °C under 5% of CO2, 24 h later, cells were treated with 2.5 μM KRSs probes for 6 h. The medium was replaced with DMEM without phenol red, and Hoechst was added to a final concentration of 5 μg/mL. Live imaging of cells using a Zeiss LSM 710 Axio Observer.Z1 with a 63/24 Oil DIC M27 lens, in Cy3 and DAPI channels, was performed over 24 h; pictures were taken every 20–25 min. The Z-stack analysis was performed using 3–5 different depths focusing on the cell nucleus; each slice was 1–1.5 μm. Image processing was performed using NIS-Elements image acquisition software, quantifying the 63× images of several experiments and calculating the average fluorescence intensity. Statistics and standard deviation were calculated by using Microsoft Excel.

The nature of series [6]: Quenching efficiency (fluorescent plate reader). It is filed as physicochemical. The following applies: lower fluorescence than average of nonquenched probes; slope ratio; 0.013–10 μM in acetate buffer pH 5.5; Ex./Em. 535/570 nm. On the procedure:
Increasing concentrations (0.013–10 μM) of KRS (A1-F1), in acetate buffer (50 mM acetate, 5 mM MgCl2, 2 mM DTT, pH 5.5), were prepared in a 96-well plate. Fluorescence was measured and quantified using a BioRad plate reader, Ex./Em. 535/570 nm. Arbitrary fluorescent units were plotted versus probe concentration, and the ratio between the slope of each quenched probe and the average of the nonquenched probes were determined as quenching efficiency.

The test system of series [7] is HeLa cells. Briefly: Live cell confocal imaging and time-lapse movies. It is filed as cell-based, human. How it is done: as §3
The test system of series [8] is HeLa cells. In words: Subcellular fractionation with fluorescent SDS-PAGE. It is filed as cell-based, human. Particulars: 2.5 μM, 6 h; for Active cathepsin in nuclear fraction: 20 μg protein per fraction. On the procedure:
Cell fractionation was performed according to the manufacturer’s instructions using the Subcellular Protein Fractionation Kit for Cultured Cells (Pierce, Thermo Fisher Scientific Inc., Rockford, IL, USA, number 78840). Lysed cells were separated into subsequent cytosol, membrane, and nuclear fractions. Extracted proteins were subjected to SDS PAGE separation and fluorescence and Western blot analysis.

The target of series [9] is Recombinant human cathepsin S (Homo sapiens, UniProt P25774). In words: Recombinant cathepsin labeling, fluorescent SDS-PAGE. It is filed as binding. The following applies: pH 5.5, 37 °C, probe intensities compared with KRS-D1(qAc), GB111-NH2 given as pretreatment before KRS probes. On the procedure: (§4) Recombinant human cathepsins B (0.7 μg), L (0.6 μg), or S (0.7 μg) in reaction buffer (50 mM acetate, 5 mM MgCl2, 2 mM DTT, pH 5.5) was pretreated with the cathepsin inhibitor GB111-NH2 or vehicle for 30 min at room temp. Indicated concentrations of KRS probes were added to the samples for 30 min at 37 °C. The reaction was stopped by adding 4× sample buffer (40% glycerol, 0.2 M Tris/HCl 6.8, 20% β-mercaptoethanol, 12% SDS, and 0.4 mg/mL bromophenol blue). The samples were boiled and separated by a 12% SDS gel and scanned by a Typhoon laser scanner at Ex./Em. 535/570 nm for fluorescence.
Recombinant human cathepsin S, sequence (P25774 115-331): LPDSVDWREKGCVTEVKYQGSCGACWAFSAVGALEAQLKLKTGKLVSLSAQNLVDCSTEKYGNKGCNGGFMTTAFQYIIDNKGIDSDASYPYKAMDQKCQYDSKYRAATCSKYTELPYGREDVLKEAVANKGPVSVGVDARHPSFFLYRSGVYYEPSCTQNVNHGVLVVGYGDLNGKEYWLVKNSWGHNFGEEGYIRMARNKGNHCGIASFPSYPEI

In series [10] the target is Recombinant human cathepsin L (Homo sapiens, UniProt P07711). The description is as above. The following applies: pH 5.5, 37 °C, probe intensities compared with KRS-D1(qAc), GB111-NH2 given as pretreatment before KRS probes. Type of series: binding. On the procedure: as §4
Recombinant human cathepsin L, sequence (P07711 114-333): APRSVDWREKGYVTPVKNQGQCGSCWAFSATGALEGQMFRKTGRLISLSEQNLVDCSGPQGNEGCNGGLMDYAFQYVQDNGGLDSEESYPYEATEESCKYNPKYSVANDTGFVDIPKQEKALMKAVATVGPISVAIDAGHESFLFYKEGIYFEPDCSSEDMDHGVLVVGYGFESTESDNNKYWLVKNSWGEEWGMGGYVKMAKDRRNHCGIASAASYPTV
Series [11] concerns the target Recombinant human cathepsin B (Homo sapiens, UniProt P07858). The description is as above. Type of series: binding. Particulars: pH 5.5, 37 °C, probe intensities compared with KRS-D1(qAc), GB111-NH2 given as pretreatment before KRS probes. On the procedure: as §4
In series [12] the test system is HeLa cells. In words: Image Streamer flow imaging, fixed cells. Type of series: cell-based, human. Particulars: 6 h, Draq5 stain. How it is done: Live or methanol fixed cells were pretreated with KRS probes at 2.5 μM for 6 h predissolved in 0.1% DMSO and 0.9% ethanol in a culture medium. After the incubation, cells were washed with PBS centrifuged and dissolved in PBS in a final volume of 50 μL. The DNA markers: Hoechst (Thermo Fisher) at a final concentration of 1 μg/mL or Draq5 (Thermo Fisher) at a final concentration of 1.5 μM were added. The samples were analyzed using an Image StreamX Flow Imager system (Merk Millipore).

For “TAT-Cys-Phe-Phe-Lys-(TMR-X)-AOMK-Ac [KRS-A1(TAT)]”, the “Permeability in time-course labeling” value is “enhanced and accelerated permeability” in the series with HeLa cells [1]; “enhanced and accelerated permeability” in the series on NIH-3T3 cells [2]. Also, the “Binding relative to the other probes” value in [3] (as seen in Figures 2 and 6a) is recorded as “strongest binding of all probes”. Besides, the “Labeling of intracellular cathepsin B” value in series [3] is recorded as “enhanced labeling”. Besides, the “Labeling of intracellular cathepsin L” value in series [4] was “enhanced labeling”. In addition, in the series with NIH-3T3 cells [5], the “Probe staining intensity in live cells” value is “intense staining”.

As to “Ac-Cys-Phe-Phe-Lys-(TMR-X)-AOMK-Ac [KRS-C1(Ac)]”, the “Probe staining intensity in live cells” value in the series on NIH-3T3 cells [5] is on record as “relatively weak staining”.

As for “Ac-Cys-Phe-Phe-Lys-(TMR-X)-AOMK-QSY7 [KRS-D1(qAc)]”, the “Fold quenching (quenching efficiency)” value in series [6] is 61 fold. In the series with NIH-3T3 cells [5], the “Nuclear cathepsin labeling (confocal Z-stack, costaining with Hoechst)” value (shortened to “Nuclear cathepsin labeling”) is listed as “did not detect cathepsins in the nucleus” and the “Probe staining intensity in live cells” value was “relatively weak staining”.

In the case of “NLS-Cys-Phe-Phe-Lys-(TMR-X)-AOMK-Ac [KRS-F1(NLS)]”, the “Probe staining intensity in live cells” value with NIH-3T3 cells [5] is “intense staining”.

Consider “TAT-Cys-Phe-Phe-Lys-(TMR-X)-AOMK-QSY7 [KRS-B1(qTAT)]”, for which the “Effect on entry of cells to mitosis” value with HeLa cells [7] (HeLa, 2.5 μM, time-lapse over 22 h) is given as “inhibited the entry of cells to mitosis”. Further, the “Active cathepsin in nuclear fraction” value with HeLa cells [8] is “clear presence of active nuclear cathepsin”. Moreover, the “Fold quenching (quenching efficiency)” value in [6] was determined as 66 fold. In addition, in the series on HeLa cells [1], the “Permeability in time-course labeling” value is “enhanced and accelerated permeability”. Further, the “Fluorescence labeling of recombinant cathepsin S” value in [9] is reported as “slightly lower”. In addition, the “Fluorescence labeling of recombinant cathepsin L” value in [10] is reported as “slightly lower”. In series [11], the “Fluorescence labeling of recombinant cathepsin B” value is “slightly lower”. Also, the “Permeability in time-course labeling” value in the series with NIH-3T3 cells [2] was “enhanced and accelerated permeability”. Besides, in [3], the “Cell permeability / cell penetration” value is on record as “significantly greater cell penetration” and the “Labeling of intracellular cathepsin B” value was “enhanced labeling”. Further, the “Labeling of intracellular cathepsin L” value in [4] is given as “enhanced labeling”. Also, in the series with NIH-3T3 cells [5], the “Nuclear cathepsin labeling” value is “label nuclear cathepsins” and the “Probe staining intensity in live cells” value was “intense staining”. Also, in the series on HeLa cells [12], the “Nuclear cathepsin activity (TMR-X and Draq5 similarity)” value is “much higher degree”.

With “NLS-Cys-Phe-Phe-Lys-(TMR-X)-AOMK-QSY7 [KRS-E1(qNLS)]”, in the series with HeLa cells [8], the “Intensity in fractions relative to KRS-B1(qTAT)” value is listed as “weaker intensity” and the “Active cathepsin in nuclear fraction” value is reported as “clear presence of active nuclear cathepsin”. Also, in series [6], the “Fold quenching (quenching efficiency)” value is 54 fold. In addition, the “Fluorescence labeling of recombinant cathepsin S” value in series [9] is given as “slightly lower”. Also, the “Fluorescence labeling of recombinant cathepsin L” value in [10] is reported as “slightly lower”. The “Fluorescence labeling of recombinant cathepsin B” value in [11] is “slightly lower”. For the same compound, in [3], the “Cell permeability / cell penetration” value is listed as “significantly greater cell penetration” and the “Labeling of intracellular cathepsin B” value is given as “enhanced labeling”. The “Labeling of intracellular cathepsin L” value in series [4] is reported as “enhanced labeling”. For the same compound, in the series on NIH-3T3 cells [5], the “Nuclear cathepsin labeling” value was “label nuclear cathepsins” and the “Probe staining intensity in live cells” value was “intense staining”.

For the compound `Cc1cccc(C)c1C(=O)OCC(=O)[C@H](CCCCN)NC(=O)[C@H](Cc1ccccc1)NC(=O)OCc1ccccc1` [GB111-NH2, reference compound], the “Fluorescent signal of KRS probes after inhibitor pretreatment” value in the series on HeLa cells [7] (live HeLa, 2.5 μM GB111-NH2 pretreatment, then KRS-B1(qTAT) or KRS-E1(qNLS) 6 h) is listed as “strongly reduced”. The “Fluorescence labeling of recombinant cathepsin S” value in [9] is given as “dramatically reduced”. The “Fluorescence labeling of recombinant cathepsin L” value in series [10] is recorded as “dramatically reduced”. Besides, the “Fluorescence labeling of recombinant cathepsin B” value in [11] is listed as “dramatically reduced”.
